Results from patent US20040057908A1, “Oral compositions and use thereof” (priority 2003, published 2004).
Values joined by “and” are separate entries in the source; they are usually repeats but may differ in a detail not shown here. Equal values may be shown once. “Also recorded” adds a separate entry of the source.

Assays:
[1] = system: S. mutans UA159 and S. sobrinus 6715 biofilms; test: Time-kill assay in 5-day-old biofilms; type: cell-based; conditions: 1.33 mM (fluoride 250 ppm)
Method: Cells of mutans streptococci were grown in tryptone-yeast extract broth with addition of 1% (w/v) sucrose at 37° C. and 5% CO2. […] The killing assays were performed according to Phan et al. (2000). […] The homogenized suspension was serially diluted (10^1 to 10^4) and plated on tryptic soy agar or blood agar by means of a spiral plater (Autoplate model 3000, Spiral Biotech, Inc., Bethesda, Md). […] Killing curves were constructed by plotting log10 CFU/ml versus time over 4 h. All the assays were carried out in quadruplicate on at least 3 different occasions. Bactericidal effect was defined as a ≧3 log10 decreases in the CFU/ml from initial viable counts, at time zero. The potential for drug carry-over to produce falsely low viability counts was minimized by dilution of inocula and plating of small volumes of diluted samples (50 μl).

streptococcal GTFs [2] = system: T1, streptococcal GTFs; test: GTF activity adsorbed onto sHA surface, all GTFs stated together; type: biochemical, Streptococcus mutans, S. sanguinis; conditions: 1.33 mM
T1 construct: Streptococcus milleri KSB8, which harbors the gtfB gene from S. mutans GS-5 (for GTF B production)
Method: (§1) Glucosyltransferase activity was measured by the incorporation of [^14C-glucose] from labeled sucrose (NEN Research Products, Boston, Mass.) into glucans (Germaine et al., 1974; Venkitaraman et al., 1995). The GTF enzyme added to each sample for all assays was equivalent to the amount required to incorporate 1.0-1.5 μmol of glucose over the four hours reaction (1.0-1.5 units).
For surface assays, the GTFs were adsorbed to hydroxyapatite beads coated with clarified whole saliva (free of GTF activity), as detailed elsewhere (Koo et al., 2000c; Schilling and Bowen, 1988, Venkitaraman et al., 1995). The saliva-coated hydroxyapatite (sHA) beads were exposed to sufficient enzyme to saturate the surface as determined experimentally. Following the adsorption of the enzyme, the beads were washed 3 times with buffer to remove the loosely bound material and exposed to 300 μl of the two-fold dilution series of test compounds (or control) for 30 min. at the same concentrations described above. The beads were washed and exposed to 300 μl [^14C-glucose]-sucrose substrate (100.0 mmol/l sucrose, final concentration). The radiolabeled glucan formed was collected and quantified by scintillation counting (Germaine et al., 1974; Venkitaraman et al., 1995). All the solution and surface assays were done in quadruplicate in at least 3 different experiments. […]

GTF Ss [3] = target: T2, GTF Ss (Streptococcus sanguinis, UniProt A3CLJ9); test: GTF activity in solution, GTF Ss; type: biochemical, S. sanguinis; conditions: read-out: GTF Ss sol. % of Inhib.
Method: as §1
(§2) For solution assays, purified GTF B, C, D and Ss were mixed with a two-fold dilution series of the test compounds (concentration ranging from 125 to 500 μM) and incubated with [^14C-glucose]-sucrose substrate (0.2 μCi/ml) (200.0 mmol/l sucrose, 40 μmol/l dextran 9000, 0.02% sodium azide in adsorption buffer—50 mM KCl, 1.0 mM KPO4, 1.0 mM CaCl2, 0.1 mM MgCl2−pH=6.5) to reach a final concentration of 100 mmol/l sucrose (200 μl final volume). For the control, the same reaction was carried out, where ethanol:DMSO (final concentration of 7.5% and 1.25%, v/v) or ethanol (final concentration of 5%, v/v) replaced the test agent solutions. The samples were incubated 37° C. with rocking for 4 h. After incubation, ice-cold ethanol (1.0 ml) was added and the samples were stored for 18 h, 4° C. for precipitation of glucans. Radiolabeled glucan was determined by scintillation counting (Germaine et al., 1974; Venkitaraman et al., 1995).

GTF C [4] = target: T3, GTF C (Streptococcus mutans serotype c, UniProt P13470); test: GTF activity in solution, GTF C; type: biochemical; conditions: read-out: GTF C sol. % of Inhib.
T3 construct: The supernatant was carefully collected as the source of GTF C; made in house; host or cells: Streptococcus mutans WHB 410 (endogenous gtfC; urea/Triton extract of washed cells, hydroxyapatite chromatography)
Method: as §1, §2

biofilms = test: Formation of biofilms (continued research); type: cell-based
dental caries = test: Rat caries experiment: caries scores (Larson's modification of Keyes' system); type: in vivo, Sprague Dawley rats; conditions: Ds and Dm levels; tt-farnesol Dm only; p<0.05
Method: Seven litters of ten female Sprague Dawley rats aged 14 days were purchased with their dams from Charles River (Kingston, N.Y., USA). […] The experiment proceeded for five weeks, at which time the animals were killed by CO2 asphyxiation. The lower left jaw was aseptically dissected, suspended in 5.0 mL of sterile saline solution, and sonicated (three 10-second pulses with 5-second intervals at 30 watts, Branson Sonifier 450). The suspension was plated on mitis salivarius agar plus streptomycin to estimate S. sobrinus population and on blood agar to determine total cultivable flora (TCF). […] The determination of caries score was blind by codification of the jaws and was done by 1 calibrated examiner. […] The level of significance was 5%.

GTF D = target: T4, GTF D (Streptococcus mutans serotype c, UniProt P49331); test: GTF activity adsorbed onto sHA surface, GTF D; type: biochemical
T4 construct: made in house; host or cells: Streptococcus milleri NH5 (culture supernatant)
Method: as §1
(§3) For surface assays, the GTFs were adsorbed to hydroxyapatite beads coated with clarified whole saliva (free of GTF activity), as detailed elsewhere (Koo et al., 2000c; Schilling and Bowen, 1988, Venkitaraman et al., 1995). The saliva-coated hydroxyapatite (sHA) beads were exposed to sufficient enzyme to saturate the surface as determined experimentally. Following the adsorption of the enzyme, the beads were washed 3 times with buffer to remove the loosely bound material and exposed to 300 μl of the two-fold dilution series of test compounds (or control) for 30 min. at the same concentrations described above. The beads were washed and exposed to 300 μl [^14C-glucose]-sucrose substrate (100.0 mmol/l sucrose, final concentration). The radiolabeled glucan formed was collected and quantified by scintillation counting (Germaine et al., 1974; Venkitaraman et al., 1995). All the solution and surface assays were done in quadruplicate in at least 3 different experiments.

GTF C [5] = target: T3, GTF C; test: GTF activity adsorbed onto sHA surface, GTF C; type: biochemical
Method: as §1, §3

streptococcal GTFs [6] = system: T1, streptococcal GTFs; test: GTF activity in solution, all GTFs (B, C, D, Ss) stated together; type: biochemical, Streptococcus mutans, S. sanguinis; conditions: 1.33 mM
Method: The GTF enzyme added to each sample for all assays was equivalent to the amount required to incorporate 1.0-1.5 μmol of glucose over the four hours reaction (1.0-1.5 units).
The samples were incubated 37° C. with rocking for 4 h.
For this assay, a one-way layout experimental design was used in 4×2×7 factorial scheme (enzyme×state×dose). An analysis of variance was carried out and qualitative treatments were compared using Tukey test at level of 5% of significance (p<0.05). A non-linear regression was applied in order to evaluate effects of different concentrations.

GTF Ss [7] = target: T2, GTF Ss; test: GTF activity adsorbed onto sHA surface, GTF Ss; type: biochemical, S. sanguinis
Method: as §1, §3

[8] = read-out: GTF D surf. % of Inhib.
[9] = read-out: GTF C surf. % of Inhib.
[10] = read-out: GTF Ss surf. % of Inhib.

T4 sequence (P49331 whole entry): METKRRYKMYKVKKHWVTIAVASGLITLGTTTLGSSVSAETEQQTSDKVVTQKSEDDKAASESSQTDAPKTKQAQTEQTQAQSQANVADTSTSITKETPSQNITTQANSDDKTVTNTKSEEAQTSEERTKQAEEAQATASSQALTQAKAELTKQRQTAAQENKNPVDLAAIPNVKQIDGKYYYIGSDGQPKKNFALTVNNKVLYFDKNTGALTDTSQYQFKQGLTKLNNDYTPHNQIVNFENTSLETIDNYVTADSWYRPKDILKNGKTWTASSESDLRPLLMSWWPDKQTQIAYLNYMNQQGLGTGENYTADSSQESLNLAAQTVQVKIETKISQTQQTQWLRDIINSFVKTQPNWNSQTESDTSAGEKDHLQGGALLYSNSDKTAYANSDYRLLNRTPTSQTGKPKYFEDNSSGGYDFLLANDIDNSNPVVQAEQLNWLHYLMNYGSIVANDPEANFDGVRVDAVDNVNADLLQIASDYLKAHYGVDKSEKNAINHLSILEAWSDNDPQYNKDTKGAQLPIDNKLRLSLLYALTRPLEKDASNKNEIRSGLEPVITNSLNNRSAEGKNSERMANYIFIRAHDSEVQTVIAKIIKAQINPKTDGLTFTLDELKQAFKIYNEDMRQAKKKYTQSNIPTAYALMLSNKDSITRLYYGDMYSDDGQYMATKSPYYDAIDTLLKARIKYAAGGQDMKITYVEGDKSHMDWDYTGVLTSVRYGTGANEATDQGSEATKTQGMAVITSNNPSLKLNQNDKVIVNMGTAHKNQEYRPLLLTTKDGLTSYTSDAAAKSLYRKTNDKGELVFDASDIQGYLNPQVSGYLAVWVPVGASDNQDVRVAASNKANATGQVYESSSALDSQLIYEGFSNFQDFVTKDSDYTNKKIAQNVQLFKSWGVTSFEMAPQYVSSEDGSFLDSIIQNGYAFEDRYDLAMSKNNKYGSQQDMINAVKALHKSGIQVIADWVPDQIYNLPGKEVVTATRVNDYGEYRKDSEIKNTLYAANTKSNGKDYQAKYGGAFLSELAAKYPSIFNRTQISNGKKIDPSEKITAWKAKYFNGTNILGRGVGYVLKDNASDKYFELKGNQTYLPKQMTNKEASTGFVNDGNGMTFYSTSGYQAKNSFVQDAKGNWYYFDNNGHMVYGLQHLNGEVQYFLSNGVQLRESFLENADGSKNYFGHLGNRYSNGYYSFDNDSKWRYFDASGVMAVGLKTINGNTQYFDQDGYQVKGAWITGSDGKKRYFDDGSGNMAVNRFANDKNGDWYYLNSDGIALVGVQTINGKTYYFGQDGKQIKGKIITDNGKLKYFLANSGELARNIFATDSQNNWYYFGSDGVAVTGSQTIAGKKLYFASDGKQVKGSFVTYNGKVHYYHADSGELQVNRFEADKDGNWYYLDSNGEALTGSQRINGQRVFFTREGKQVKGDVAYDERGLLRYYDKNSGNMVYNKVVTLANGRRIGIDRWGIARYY
T3 sequence (P13470 35-1455): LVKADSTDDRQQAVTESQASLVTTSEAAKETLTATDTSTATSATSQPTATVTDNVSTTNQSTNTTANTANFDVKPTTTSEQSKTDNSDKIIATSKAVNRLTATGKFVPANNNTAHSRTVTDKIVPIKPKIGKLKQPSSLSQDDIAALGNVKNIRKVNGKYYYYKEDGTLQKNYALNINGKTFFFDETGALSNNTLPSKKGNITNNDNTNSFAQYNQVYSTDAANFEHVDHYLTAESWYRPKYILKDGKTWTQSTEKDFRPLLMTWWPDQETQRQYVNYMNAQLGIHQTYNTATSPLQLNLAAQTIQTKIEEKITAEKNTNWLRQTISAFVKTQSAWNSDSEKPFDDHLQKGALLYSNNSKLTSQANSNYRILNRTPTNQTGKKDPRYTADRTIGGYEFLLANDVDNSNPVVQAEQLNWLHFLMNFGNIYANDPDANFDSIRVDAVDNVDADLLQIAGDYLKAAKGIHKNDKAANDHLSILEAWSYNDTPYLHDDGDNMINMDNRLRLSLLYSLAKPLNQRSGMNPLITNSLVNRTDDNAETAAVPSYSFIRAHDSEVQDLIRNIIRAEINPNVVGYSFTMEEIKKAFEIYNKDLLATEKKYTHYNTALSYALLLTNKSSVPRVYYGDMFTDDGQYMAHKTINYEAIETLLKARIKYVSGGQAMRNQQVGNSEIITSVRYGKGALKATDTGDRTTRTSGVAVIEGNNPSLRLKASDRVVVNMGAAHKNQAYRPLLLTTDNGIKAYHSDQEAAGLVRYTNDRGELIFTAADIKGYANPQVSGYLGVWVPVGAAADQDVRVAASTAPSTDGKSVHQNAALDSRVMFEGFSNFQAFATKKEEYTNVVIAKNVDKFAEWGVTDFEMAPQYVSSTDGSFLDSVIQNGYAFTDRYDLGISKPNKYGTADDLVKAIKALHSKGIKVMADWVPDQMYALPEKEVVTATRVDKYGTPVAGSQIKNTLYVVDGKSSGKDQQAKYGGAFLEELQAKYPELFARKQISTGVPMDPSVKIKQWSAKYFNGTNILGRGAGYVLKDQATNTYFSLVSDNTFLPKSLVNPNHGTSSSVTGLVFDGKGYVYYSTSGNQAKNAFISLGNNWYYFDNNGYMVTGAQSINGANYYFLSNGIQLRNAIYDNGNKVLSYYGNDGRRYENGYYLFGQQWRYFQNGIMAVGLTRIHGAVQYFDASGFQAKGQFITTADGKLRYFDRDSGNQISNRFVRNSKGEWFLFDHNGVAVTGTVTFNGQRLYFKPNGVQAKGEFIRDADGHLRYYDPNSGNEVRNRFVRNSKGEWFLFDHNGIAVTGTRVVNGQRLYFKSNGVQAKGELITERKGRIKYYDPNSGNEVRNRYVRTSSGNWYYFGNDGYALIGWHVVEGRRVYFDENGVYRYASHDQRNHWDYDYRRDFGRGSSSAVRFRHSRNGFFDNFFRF

## O=c1cc(-c2ccc(O)cc2)oc2cc(O)cc(O)c12 [Apigenin]
[1]
  antibacterial activity against mutans streptococci biofilms (in words): devoid of antibacterial effects; also recorded: negligible antibacterial activity
Streptococcal GTFs [2]
  inhibition of GTFs on a surface: 60-70%
GTF Ss [3]
  inhibition at 125 µM: 83.2%
  inhibition at 250 µM: 91.2%
  inhibition at 500 µM: 92.7%
GTF C [4]
  inhibition at 125 µM: 77.5%
  inhibition at 250 µM: 87.5%
  inhibition at 500 µM: 90.5%
biofilms
  formation of biofilms (in words): inhibits formation of biofilms
Dental caries
  smooth-surface caries severity scores versus control (in words): significantly lower
GTF D
  IC50: > 1000 µM
GTF D; [8]
  inhibition at 125 µM: 17%
  inhibition at 250 µM: 25.5%
  inhibition at 500 µM: 33%
GTF C [5]; IC50 for surface-adsorbed GTF C, surface-adsorbed
  IC50: 458 µM and 451 µM
GTF C [5]; [9]
  inhibition at 125 µM: 30%
  inhibition at 250 µM: 42.1%
  inhibition at 500 µM: 60.5%
Streptococcal GTFs [6]
  inhibition of GTFs in solution: 90-95%
GTF Ss [7]; [10]
  inhibition at 125 µM: 13.8%
  inhibition at 250 µM: 20.2%
  inhibition at 500 µM: 30%
GTF Ss [7]; read-out: IC50 for surface-adsorbed GTF SS, surface-adsorbed
  IC50: > 1000 µM
